According to PubChem BioAssay (NCI):
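1) Cells in 96-well plates. 2) Compound, 48 h, 5 concentrations. 3) Linear interpolation between surrounding doses. 4) Unreached endpoint = highest concentration. GI50 is the concentration that inhibits growth by half. TGI is the concentration that stops growth completely.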

Columns and labels:
Assay in all cases: NCI-60 cell line screen, 48 h
SK-MEL-2 melanoma = tested on: SK-MEL-2 melanoma
KM12 colon = tested on: KM12 colon
MCF7 breast = tested on: MCF7 breast
HL-60(TB) leukemia = tested on: HL-60(TB) leukemia
COLO 205 colon = tested on: COLO 205 colon
MDA-MB-435 = tested on: MDA-MB-435
SW-620 colon = tested on: SW-620 colon
NCI/ADR-RES ovarian = tested on: NCI/ADR-RES ovarian
NCI-H522 lung = tested on: NCI-H522 lung
A498 renal = tested on: A498 renal

Structure (SMILES)	GI50 (SK-MEL-2 melanoma) [µM]	TGI (SK-MEL-2 melanoma) [µM]	GI50 (KM12 colon) [µM]	TGI (KM12 colon) [µM]	GI50 (MCF7 breast) [µM]	TGI (MCF7 breast) [µM]	GI50 (HL-60(TB) leukemia) [µM]	TGI (HL-60(TB) leukemia) [µM]	GI50 (COLO 205 colon) [µM]	TGI (COLO 205 colon) [µM]	GI50 (MDA-MB-435) [µM]	TGI (MDA-MB-435) [µM]	GI50 (SW-620 colon) [µM]	TGI (SW-620 colon) [µM]	GI50 (NCI/ADR-RES ovarian) [µM]	TGI (NCI/ADR-RES ovarian) [µM]	GI50 (NCI-H522 lung) [µM]	TGI (NCI-H522 lung) [µM]	GI50 (A498 renal) [µM]	TGI (A498 renal) [µM]
Cn1ncc2c(N)nc(N3CCCCC3)nc21	23	71.6	26.2	82.8	17.1	39.9	36	> 100	19.7	51.4	24.1	81.4	31	> 100	> 100	> 100	23	63.9	18.5	42.9
C#CC1(O)C(COP(=O)(O)OC2CC(n3cc(F)c(=O)[nH]c3=O)OC2CO)OC(n2ccc(N)nc2=O)C1O (stereo unspecified)	0.0735	1.66	< 0.01	> 29	< 0.01	0.137	< 0.0181	–	< 0.01	1.61	< 0.0176	0.545	< 0.01	> 100	< 0.012	–	< 0.014	3.15	0.0824	1.87
CCCCCCCCCCN(CCCCCCCCCC)CC(=O)c1ccc2cc(Br)c3ccccc3c2c1	1.84	3.48	1.88	3.66	1.8	3.25	2.01	4.22	1.66	3.16	1.76	3.42	1.87	3.75	1.79	3.52	1.56	3.27	10.2	22.4
COC(=O)c1sc(C(=O)OC)c2c1CSC2	–	> 100	–	> 100	–	> 100	–	> 100	–	> 100	–	> 100	–	> 100	–	> 100	–	> 100	–	> 100
OCC1OC(n2ccc3c(NO)ncnc32)C(O)C1O (stereo unspecified)	0.155	0.429	0.234	1.12	0.13	1.68	0.214	0.638	0.114	0.617	0.198	0.632	0.0895	3.23	0.238	1.64	0.188	0.718	0.152	0.794
O=C(Nc1ccc(F)cc1)c1c(NC(=O)C(F)(F)F)sc2c1CCCCC2	1.47	6.75	1.96	9.23	1.97	9.84	2.68	8.32	1.55	3.59	2.69	17	2.51	11.9	2.01	7.82	1.33	7.41	0.0527	0.752
COC1CC2C=C(C)/C=C/C=C/C(=O)NC(c3ccccc3)C/C=C/CCC(O)CC(=O)C2=C1O (stereo unspecified)	0.223	0.6	0.332	1.26	0.169	0.776	0.153	0.406	0.159	0.315	0.313	1.29	0.31	1.36	0.309	1.19	0.211	0.693	0.166	0.654
O=C(NCCCNc1cc(-c2cn(-c3ccccc3)nc2-c2cccc(O)c2)ccn1)c1ccccc1	3.42	13.7	3.34	14.8	1.74	5.29	1.68	4.19	1.71	3.67	1.87	4.75	2.36	6.15	2.67	9.79	3.06	17.1	2.32	66.4
CCOC(=O)C(=Cc1ccccc1[N+](=O)[O-])C(=O)OCC	4.01	11.9	2.72	10.3	2.52	14.2	3.3	45.5	2.14	3.85	3.08	12.1	2.12	4.85	2.59	7.8	1.86	4.63	5.6	17.3
N=C(N=C(N)N)N1CCN(c2ccncc2)CC1	> 1000	> 1000	> 1000	> 1000	> 1000	> 1000	> 1000	> 1000	> 1000	> 1000	> 1000	> 1000	> 1000	> 1000	> 1000	> 1000	> 1000	> 1000	155	> 1000
CC/C=C\C[C@H](O)C/C=C1/C(=O)C=C[C@@H]1C/C=C\CCCC(=O)N(C)C	2.5	7.13	0.709	4.03	0.368	12.2	2.27	13.6	1.45	3.3	0.862	2.37	0.851	6.16	1.08	7.9	1.33	2.98	2.56	4.46
Cc1cc(C)c(C[N+](C)(C)C)c(C)c1C	0.654	5.04	0.33	24.2	0.289	15.2	0.496	> 24.7	0.236	1.85	0.328	12.5	0.32	> 100	0.475	16.3	0.208	2.61	0.729	8.66
NNc1cccc(/C=C/c2ccccc2)cc1=O	70.1	> 100	8.33	> 100	8.32	> 100	3.97	> 100	7.76	> 100	4.31	50.1	5.86	> 100	4.36	> 100	8.18	> 100	13	55.7
Cc1nc2ccc(Nc3nc(NCCN4CCOCC4)nc(Nc4ccc(F)cc4)n3)cc2n1Cc1ccccc1	2.16	4.61	3.82	19.9	2.46	11.7	1.82	4.72	1.62	3.13	2.23	6.25	3.24	10.7	3.79	40.1	2.92	9.48	1.35	5.13
OCCSCc1ccccc1	–	> 100	–	> 100	–	> 100	–	> 100	–	> 100	–	> 100	–	> 100	–	> 100	–	> 100	–	> 100
COc1cc(/C=C2\CC3C4CC=C5C[C@@H](OC(C)=O)CC[C@]5(C)C4CC[C@]3(C)C2=O)ccc1OCCCn1ccnc1 (stereo partly specified)	16.8	> 50	8.75	16.2	9.36	21	11.2	21.8	20.7	> 50	10.3	26.6	10.1	23.3	8.94	19.5	19	> 50	9.31	21.6
CC[C@@]1(O)C(=O)NCc2c1cc1n(c2=O)Cc2cc3c(N)cccc3nc2-1	9.29	> 17.7	10.6	> 36.9	0.787	> 100	1.19	> 34.6	8.35	> 48.1	4.8	18.5	4.16	> 100	2.29	38.5	0.176	9.71	5.09	38.6
O=c1nc(Nc2cccc(Cl)c2)oc2cc(Cl)oc(=O)c12	2.02	4.61	11.4	31.8	4.33	20.9	10.8	55.2	10.8	23.7	5.34	20.8	10.9	29.9	13.4	70.5	2.45	8.16	10.9	27.3
CCCCNN	–	> 100	–	> 100	–	> 100	–	> 100	–	> 100	–	> 100	–	> 100	–	> 100	–	> 100	–	> 100
C=C1C(=O)OC2CC1C(O)C/C(C)=C/CC/C(C)=C/C(O)CC2C (stereo unspecified)	–	12.2	–	18.3	–	7.44	–	1.32	–	2.94	–	13.4	–	5.62	–	4.8	–	0.504	–	9.16
Cc1sc(C)c(Cc2c(C)sc(C)c2CCl)c1CCl	> 100	> 100	> 100	> 100	> 100	> 100	> 100	> 100	> 100	> 100	> 100	> 100	> 100	> 100	> 100	> 100	> 100	> 100	> 100	> 100
N#Cc1c(-c2ccccc2)cc(-c2ccc(Nc3nc(Nc4ccc(Cl)cc4)nc(Nc4ccc(Cl)cc4)n3)cc2)nc1N	1.54	3.44	2.91	11.4	1.56	4.16	1.71	5.35	1.78	3.96	2.8	14.1	1.91	4.82	16.2	> 100	1.39	3.1	1.28	8.72
Cn1ccn2c3nc4ccccc4nc3c(=O)c(C#N)c12	–	> 100	–	> 100	–	> 100	–	> 100	–	> 100	–	> 100	–	> 100	–	> 81.8	–	> 100	–	> 100
COCCOC(=O)NC(=O)Nc1ccc(/C(=N/O)c2ccc(Cl)cc2)cc1	–	29	0.0996	29.1	0.0989	37.9	0.0783	0.137	0.14	2.28	0.092	0.374	0.109	> 100	–	7.31	0.123	5.58	0.179	3.46
COc1ccc(/C=C/c2nc(NCCCN(C)C)c3ccccc3n2)cc1	1.88	3.52	1.73	3.13	1.72	3.23	1.71	3.86	1.8	3.3	1.81	3.65	1.67	3.49	> 100	> 100	1.83	3.66	14	27.7
Nc1ccc(S(=O)(=O)C23CC4CC(CC(C4)C2)C3)cc1	–	> 100	–	> 100	–	> 100	–	> 100	–	> 100	–	> 100	–	> 100	–	> 100	–	> 100	–	> 100
N#Cc1cnc2cc(OC[C@@H](O)CO)c(NC(=O)CC3CSSC3)cc2c1Nc1ccc(OCc2cccc(F)c2)c(Cl)c1	0.117	0.286	0.112	0.251	0.0857	0.182	0.589	1.47	0.813	1.63	0.113	0.303	0.216	0.87	2.19	3.16	0.336	0.973	0.848	1.92
